Reference: patent US9908897B2, “Spirocyclic derivatives” (CHRONOS THERAPEUTICS LIMITED, priority 2014, dated 2018)

Tests used:
[1] = biological target: human dopamine transporter (DAT) (Homo sapiens (Human), UniProt Q01959); experiment: Scintillation Proximity Assay (SPA) competition binding, human DAT; conditions: recombinant hDAT-CHO membranes, [3H]WIN-35,428
Text: (§1) Measure of Affinity to the Human Transporters DAT, NET and SERT
In the context of the present invention pKi values (corresponding to the antilogarithm of Ki) are used instead of Ki; pKi are only estimated to be accurate to about 0.3 log unit.
(§2) Scintillation Proximity Assay (SPA) for Human DAT, NET and SERT Binding
(§3) Chinese Hamster Ovary (CHO) cells stably expressing either human DAT (hDAT-CHO) or human NET (hNET-CHO) or human SERT (hSERT-CHO) are used for the membrane preparations for radioligand binding assays using Scintillation proximity Assay (SPA) technique. Each cell line is cultured independently in F-12K Nutrient Mixture containing 10% of Fetal Bovine Serum (FBS) supplemented with 450 μg/ml G-418. When cells are at 70-80% of confluence 3 mM Na Butyrate was added to the cell culture medium. After 24 h of incubation, the culture medium was removed and the cells detached with Versene (DAT) or by scraping (NET and SERT). Cell suspension is centrifuged at 41,000 g for 10 minutes at 4° C. The resultant pellets are re-suspended in 15 volumes of Ice-cold buffer (20 mM HEPES, 145 mM NaCl, 5 mM KCl, pH7.3), homogenized using an Ultra Turrax homogeniser and centrifuged as before. The resultant membrane pellets are re-suspended in up to 15 volume of ice-cold buffer, incubated for 20 minutes at 37-C and centrifuged as before at 41,000 g. The final membrane pellets are re-suspended into 5-10 volumes of ice-cold buffer, dispensed into 0.5 ml aliquots and stored at −80° C. until use. Protein concentration for each preparation is determined using Bio-Rad Protein Assay kit.
(§4) The affinity of the compounds of the invention to the human DAT or NET or SERT transporters is assessed by using the [^3H]WIN-35,428 or [^3H]nisoxetine or [^3H]citalopram binding assays in recombinant human DAT, NET and SERT membranes with the SPA technology. The final assay volume is 50 μL in 384 well plates.
(§5) Briefly, 0.5 μL of test compound in neat DMSO or 0.5 μL of DMSO for total binding (TB) or 0.5 μL of indatraline 1 mM (10 μM final concentration) for non specific binding (NSB) are added to the assay plate. 50 μL of the SPA mixture is added to each well, containing: 30 μg/mL or 10 μg/mL or 25 μg/mL DAT, NET, SERT membranes, respectively; 5 nM [^3H]WIN-35,428 or 5 nM [^3H]nisoxetine or 1 nM [^3H]citalopram, for DAT, NET, SERT assay, respectively; 2.5 mg/mL or 1 mg/mL or 4 mg/mL WGA-PVT SPA beads (PerkinElmer RPNQ0001, for DAT, NET, SERT assay, respectively. All components are added to Assay Buffer (20 mM HEPES pH 7.4, 145 mM NaCl, 5 mM KCl, 0.01% Pluronic F-127). 0.02% BSA was used for DAT binding only. Plates are sealed with Topseal A and centrifuged 1 min, 800 rpm. Plates are loaded into a 1450 Microbeta TriLux (Perkin-Elmer) plate reader and the radioactivity counted after at least 4 hrs or overnight incubation at room temperature. Curve fitting and IC50 estimations are performed using a four parameter model in XLfit (IDBS, Guilford, UK) for Microdoft Excel (Microsoft, Redmond, Wash.).

[2] = biological target: human norepinephrine transporter (NET) (Homo sapiens (Human), UniProt P23975); experiment: Scintillation Proximity Assay (SPA) competition binding, human NET; conditions: recombinant hNET-CHO membranes, [3H]nisoxetine
human norepinephrine transporter (NET), sequence (P23975 whole entry): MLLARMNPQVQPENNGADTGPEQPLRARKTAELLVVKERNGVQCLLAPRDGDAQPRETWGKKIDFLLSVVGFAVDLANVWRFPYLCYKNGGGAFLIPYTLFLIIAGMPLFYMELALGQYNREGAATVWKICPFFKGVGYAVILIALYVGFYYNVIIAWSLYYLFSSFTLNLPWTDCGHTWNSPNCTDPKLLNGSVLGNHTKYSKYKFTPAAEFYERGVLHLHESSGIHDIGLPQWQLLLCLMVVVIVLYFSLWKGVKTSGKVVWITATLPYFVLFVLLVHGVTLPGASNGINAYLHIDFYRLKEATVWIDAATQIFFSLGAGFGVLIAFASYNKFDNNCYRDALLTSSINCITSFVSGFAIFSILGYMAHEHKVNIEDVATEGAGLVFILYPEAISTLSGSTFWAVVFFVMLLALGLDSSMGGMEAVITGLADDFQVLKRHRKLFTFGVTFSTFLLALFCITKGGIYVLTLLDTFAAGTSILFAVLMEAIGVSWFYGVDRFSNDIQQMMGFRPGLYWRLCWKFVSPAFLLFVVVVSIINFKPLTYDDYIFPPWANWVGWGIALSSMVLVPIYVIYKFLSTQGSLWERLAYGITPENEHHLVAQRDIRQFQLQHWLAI
Text: as §1
(§6) Affinity is expressed in terms of inhibition constant (Ki) of the compounds of the invention for DAT, NET and SERT, and it is typically calculated from the IC50 values obtained in competition experiments using Cheng and Prusoff equation (Cheng and Prusoff, Biochem. Pharmacol. 22:3099, 1973). In the context of the present invention pKi values (corresponding to the antilogarithm of Ki) are used instead of Ki; pKi are only estimated to be accurate to about 0.3 log unit.
as §2, §3, §4, §5

[3] = biological target: human serotonin transporter (SERT) (Homo sapiens (Human), UniProt P31645); experiment: Scintillation Proximity Assay (SPA) competition binding, human SERT; conditions: recombinant hSERT-CHO membranes, [3H]citalopram
human serotonin transporter (SERT), sequence (P31645 whole entry): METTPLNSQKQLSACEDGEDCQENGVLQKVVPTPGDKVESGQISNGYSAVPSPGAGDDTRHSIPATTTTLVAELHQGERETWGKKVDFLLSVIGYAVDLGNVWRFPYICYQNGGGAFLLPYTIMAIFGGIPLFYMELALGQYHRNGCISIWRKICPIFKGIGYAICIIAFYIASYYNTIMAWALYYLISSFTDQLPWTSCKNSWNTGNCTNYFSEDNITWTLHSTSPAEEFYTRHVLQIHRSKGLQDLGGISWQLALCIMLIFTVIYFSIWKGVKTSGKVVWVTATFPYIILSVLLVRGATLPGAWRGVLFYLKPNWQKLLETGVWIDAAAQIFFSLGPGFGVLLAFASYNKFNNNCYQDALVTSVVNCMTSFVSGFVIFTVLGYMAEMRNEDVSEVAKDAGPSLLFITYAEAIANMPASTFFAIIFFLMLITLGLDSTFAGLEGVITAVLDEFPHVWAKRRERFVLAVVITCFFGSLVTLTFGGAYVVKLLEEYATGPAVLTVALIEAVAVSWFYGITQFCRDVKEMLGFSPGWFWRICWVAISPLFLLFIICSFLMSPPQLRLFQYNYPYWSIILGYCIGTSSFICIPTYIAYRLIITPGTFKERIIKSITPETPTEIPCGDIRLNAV
Text: as §1, §6, §2, §3, §4, §5

human dopamine transporter (DAT), sequence (Q01959 whole entry): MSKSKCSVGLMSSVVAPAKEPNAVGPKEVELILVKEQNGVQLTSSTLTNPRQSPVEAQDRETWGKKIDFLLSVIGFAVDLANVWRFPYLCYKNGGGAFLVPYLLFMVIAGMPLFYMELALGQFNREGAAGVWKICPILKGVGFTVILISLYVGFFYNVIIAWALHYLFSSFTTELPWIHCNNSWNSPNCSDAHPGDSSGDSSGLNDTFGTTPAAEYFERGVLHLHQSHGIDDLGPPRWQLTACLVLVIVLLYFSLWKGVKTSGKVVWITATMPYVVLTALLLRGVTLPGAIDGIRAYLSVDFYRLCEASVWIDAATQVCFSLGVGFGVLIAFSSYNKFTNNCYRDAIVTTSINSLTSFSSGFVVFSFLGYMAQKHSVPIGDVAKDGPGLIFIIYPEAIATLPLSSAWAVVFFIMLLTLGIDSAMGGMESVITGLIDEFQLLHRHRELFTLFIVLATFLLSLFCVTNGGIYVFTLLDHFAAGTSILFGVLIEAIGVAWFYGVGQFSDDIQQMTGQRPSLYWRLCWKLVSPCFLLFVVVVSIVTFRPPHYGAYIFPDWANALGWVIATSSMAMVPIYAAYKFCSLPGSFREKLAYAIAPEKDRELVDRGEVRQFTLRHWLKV

Row | SMILES | pIC50 DAT [1] | pIC50 NET [2] | pIC50 SERT [3] | IC50 [3] | IC50 [2]
1 | O=C1CCNCC12CCN(c1cc(F)c(F)cc1Oc1cccc(F)c1)C2 (stereo not drawn) [Example 86, 2-[4,5-difluoro-2-(3-fluorophenoxy)phenyl]-2,7-diazaspiro[4.5]decan-10-one] | 6.87 | 5.81 | 5.65 |  | 
2 | CN1CCCNC(=O)C12CCN(c1nc(Oc3cccc(F)c3)cc(C(F)(F)F)n1)CC2 [Example 76, 3-[4-(3-fluorophenoxy)-6-(trifluoromethyl)pyrimidin-2-yl]-7-methyl-3,7,11-triazaspiro[5.6]dodecan-12-one] | 7.28 | 4.88 |  | > 100 µM | 
3 | Cl.Fc1cccc(Oc2cc(C(F)(F)F)nc(N3CCC4(CC3)CNCCO4)n2)c1 [Example 56, 9-[4-(3-fluorophenoxy)-6-(trifluoromethyl)pyrimidin-2-yl]-1-oxa-4,9-diazaspiro[5.5]undecane hydrochloride] | 8.42 | 6.37 | 5.77 |  | 
4 | Cl.Fc1cccc(Oc2cc(F)c(F)cc2N2CCC3(CC2)CNCCO3)c1 [Example 2, 9-[4,5-difluoro-2-(3-fluorophenoxy)phenyl]-1-oxa-4,9-diazaspiro[5.5]undecane hydrochloride] | 8.14 | 6.03 | 6.49 |  | 
5 | Cl.N#Cc1c(C(F)(F)F)cc(Oc2cccc(F)c2)nc1N1CCC2(CC1)CNCCO2 [Example 40, 6-(3-fluorophenoxy)-2-{1-oxa-4,9-diazaspiro[5.5]undecan-9-yl}-4-(trifluoromethyl)pyridine-3-carbonitrile hydrochloride] | 7.25 | 6.29 | 5.35 |  | 
6 | Cl.Fc1cccc(Oc2cc(F)cc(N3CCC4(CC3)CNCCO4)c2)c1 [Example 9, 9-[3-fluoro-5-(3-fluorophenoxy)phenyl]-1-oxa-4,9-diazaspiro[5.5]undecane hydrochloride] | 8.38 | 6.91 | 7.00 |  | 
7 | N#Cc1ccc(Oc2ccccc2)cc1N1CCC2(CC1)CNCCO2 [Example 27, 2-{1-oxa-4,9-diazaspiro[5.5]undecan-9-yl}-4-phenoxybenzonitrile] | 7.54 | 5.69 | 5.15 |  | 
8 | OC1CNCCC12CCN(c1nc(Oc3cccc(F)c3)cc(C(F)(F)F)n1)C2 (stereo not drawn) [Example 97, 2-[4-(3-fluorophenoxy)-6-(trifluoromethyl)pyrimidin-2-yl]-2,8-diazaspiro[4.5]decan-6-ol] |  | 6.62 | 5.34 |  | 
9 | Cl.FC(F)(F)c1cc(Oc2cccs2)nc(N2CCC3(CC2)CNCCO3)n1 [Example 60, 9-[4-(thiophen-2-yloxy)-6-(trifluoromethyl)pyrimidin-2-yl]-1-oxa-4,9-diazaspiro[5.5]undecane hydrochloride] | 7.34 | 5.75 | 5.83 |  | 
10 | Fc1cccc(Oc2cc(N3CCC4(CC3)CNCCO4)c(F)cc2F)c1 [Example 12, 9-[2,4-difluoro-5-(3-fluorophenoxy)phenyl]-1-oxa-4,9-diazaspiro[5.5]undecane] | 6.78 | 5.75 | 5.97 |  | 
11 | c1ccc(Oc2ccccc2N2CCC3(CC2)CNCCO3)cc1 [Example 3, 9-(2-phenoxyphenyl)-1-oxa-4,9-diazaspiro[5.5]undecane] | 6.09 | 5.28 | 5.02 |  | 
12 | COc1cc(Cc2ccccc2)nc(N2CCC3(CC2)CNCCO3)n1.Cl [Example 61, 9-(4-benzyl-6-methoxypyrimidin-2-yl)-1-oxa-4,9-diazaspiro[5.5]undecane hydrochloride] | 6.67 | 5.29 | 4.89 |  | 
13 | Cl.O=C1CCNCC12CCN(c1nc(Oc3cccc(F)c3)cc(C(F)(F)F)n1)C2 (stereo not drawn) [Example 88, 2-[4-(3-fluorophenoxy)-6-(trifluoromethyl)pyrimidin-2-yl]-2,7-diazaspiro[4.5]decan-10-one hydrochloride] | 8.15 | 6.55 | 4.48 |  | 
14 | OC1CNCCC12CCN(c1nc(Oc3cccc(F)c3)cc(C(F)(F)F)n1)C2 (stereo not drawn) [Example 96, 2-[4-(3-fluorophenoxy)-6-(trifluoromethyl)pyrimidin-2-yl]-2,8-diazaspiro[4.5]decan-6-ol] |  | 6.62 | 5.25 |  | 
15 | Cl.N#Cc1cc(Oc2cccc(F)c2)nc(N2CCC3(CC2)CNCCO3)c1 [Example 38, 2-(3-fluorophenoxy)-6-{1-oxa-4,9-diazaspiro[5.5]undecan-9-yl}pyridine-4-carbonitrile hydrochloride] | 8.61 | 6.75 | 7.27 |  | 
16 | CN1CCNCC12CCN(c1nc(Oc3cccc(F)c3)cc(C(F)(F)F)n1)CC2 [Example 74, 9-[4-(3-fluorophenoxy)-6-(trifluoromethyl)pyrimidin-2-yl]-1-methyl-1,4,9-triazaspiro[5.5]undecane] | 8.38 | 6.42 | 4.95 |  | 
17 | O[C@H]1CNCC[C@@]12CCN(c1nc(Oc3cccc(F)c3)cc(C(F)(F)F)n1)C2 (single isomer, unassigned) [Example 100, 2-[4-(3-fluorophenoxy)-6-(trifluoromethyl)pyrimidin-2-yl]-2,8-diazaspiro[4.5]decan-6-ol] |  |  |  | 6.92 µM | 0.398 µM
18 | O[C@H]1CNCC[C@@]12CCN(c1nc(Oc3cccc(F)c3)cc(C(F)(F)F)n1)C2 (single isomer, unassigned) [Example 98, 2-[4-(3-fluorophenoxy)-6-(trifluoromethyl)pyrimidin-2-yl]-2,8-diazaspiro[4.5]decan-6-ol] |  |  |  | 11.2 µM | 0.437 µM
19 | O[C@H]1CNCC[C@@]12CCN(c1nc(Oc3cccc(F)c3)cc(C(F)(F)F)n1)C2 (single isomer, unassigned) [Example 99, 2-[4-(3-fluorophenoxy)-6-(trifluoromethyl)pyrimidin-2-yl]-2,8-diazaspiro[4.5]decan-6-ol] |  |  |  | 11.2 µM | 0.245 µM
20 | O[C@H]1CNCC[C@@]12CCN(c1nc(Oc3cccc(F)c3)cc(C(F)(F)F)n1)C2 (single isomer, unassigned) [Example 101, 2-[4-(3-fluorophenoxy)-6-(trifluoromethyl)pyrimidin-2-yl]-2,8-diazaspiro[4.5]decan-6-ol] |  |  |  | 11.2 µM | 0.263 µM
